For 41 compounds, residual activity results are on record in ChEMBL document CHEMBL3039007, “Structure-based identification of OATP1B1/3 inhibitors” (Mol Pharmacol, 2013).

Structures are written as SMILES. Where “and” joins values, the source holds several entries; their conditions need not be identical. Equal entries are not always repeated.

Series [1] addresses T1, Solute carrier organic anion transporter family member 1B1 (Homo sapiens, UniProt Q9Y6L6).
T1 sequence (Q9Y6L6 whole entry): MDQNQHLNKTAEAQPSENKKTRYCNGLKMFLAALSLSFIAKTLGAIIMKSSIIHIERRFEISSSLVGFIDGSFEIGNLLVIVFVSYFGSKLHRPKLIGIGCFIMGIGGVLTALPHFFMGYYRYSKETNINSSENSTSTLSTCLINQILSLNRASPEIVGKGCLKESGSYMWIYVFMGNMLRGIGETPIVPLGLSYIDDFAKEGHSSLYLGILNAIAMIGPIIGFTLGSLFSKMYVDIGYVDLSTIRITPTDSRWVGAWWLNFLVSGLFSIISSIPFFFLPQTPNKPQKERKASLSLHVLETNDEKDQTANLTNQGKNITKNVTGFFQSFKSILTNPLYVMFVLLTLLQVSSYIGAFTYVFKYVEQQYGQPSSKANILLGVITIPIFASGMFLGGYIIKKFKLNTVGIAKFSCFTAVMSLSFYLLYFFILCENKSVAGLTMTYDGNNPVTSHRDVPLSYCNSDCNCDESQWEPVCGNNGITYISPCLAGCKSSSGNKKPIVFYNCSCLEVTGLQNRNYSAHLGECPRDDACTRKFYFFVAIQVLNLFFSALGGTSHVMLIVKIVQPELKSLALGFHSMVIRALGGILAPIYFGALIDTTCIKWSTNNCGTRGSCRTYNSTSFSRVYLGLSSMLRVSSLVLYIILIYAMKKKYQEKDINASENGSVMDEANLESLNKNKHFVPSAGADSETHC
The following applies: chinese hamster, cho, 10 µM.

Series [2] concerns the target T2, Solute carrier organic anion transporter family member 1B3 (Homo sapiens, UniProt Q9NPD5).
T2 sequence (Q9NPD5 whole entry): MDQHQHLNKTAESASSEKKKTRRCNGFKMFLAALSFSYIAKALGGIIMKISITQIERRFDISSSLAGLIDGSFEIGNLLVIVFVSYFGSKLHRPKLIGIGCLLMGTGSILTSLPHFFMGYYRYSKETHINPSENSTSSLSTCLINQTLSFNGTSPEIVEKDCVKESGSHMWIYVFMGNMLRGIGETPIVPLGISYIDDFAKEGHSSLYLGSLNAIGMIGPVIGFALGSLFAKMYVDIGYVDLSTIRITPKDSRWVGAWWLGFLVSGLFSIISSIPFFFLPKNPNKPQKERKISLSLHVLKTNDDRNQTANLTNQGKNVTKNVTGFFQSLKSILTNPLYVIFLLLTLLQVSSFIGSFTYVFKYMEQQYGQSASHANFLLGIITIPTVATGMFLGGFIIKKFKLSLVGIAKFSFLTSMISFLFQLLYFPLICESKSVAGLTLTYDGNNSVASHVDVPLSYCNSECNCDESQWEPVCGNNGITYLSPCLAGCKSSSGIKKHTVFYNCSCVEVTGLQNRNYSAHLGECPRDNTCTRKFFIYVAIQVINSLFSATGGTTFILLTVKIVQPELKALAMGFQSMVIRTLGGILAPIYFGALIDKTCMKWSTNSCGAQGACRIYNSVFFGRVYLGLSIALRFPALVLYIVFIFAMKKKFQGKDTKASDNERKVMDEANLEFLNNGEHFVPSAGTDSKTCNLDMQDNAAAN
The following applies: chinese hamster, cho, 10 µM.

What is called residual activity is the signal under treatment as a percentage of the control signal.

Take `COc1ccc2c(C)cc(=O)oc2c1` [HYMECROMONE METHYL ETHER]: the residual activity is recorded as 109.2% in series [1] and 127.1% in series [2].
Take `CC(=O)CC1CCCCN1.Cl` (configuration not stated) [PELLETIERINE HYDROCHLORIDE]: the residual activity was found to be 75.96% in series [1] and 95.02% in series [2].
In the case of `COc1cc(O)c(C(=O)c2ccccc2)cc1O` [CEAROIN], the residual activity is listed as 91.48% in series [1] and 120.9% in series [2].
`CC(=O)Oc1ccc(C(c2ccc(OC(C)=O)cc2)c2ccccn2)cc1` [BISACODYL]: the residual activity in series [1] came out at 97.08%; in series [2], 103.3%.
As to `NC(=O)CN1CCCC1=O`, the residual activity in series [1] stood at 88.77%; in series [2] it was 103.1%.
As for `Nc1nc(=O)c2c([nH]1)NCC(CNc1ccc(C(=O)N[C@@H](CCC(=O)[O-])C(=O)[O-])cc1)N2C=O.[Ca+2]` (some centres not stated) [LEUCOVORIN CALCIUM], the residual activity in series [1] is 80.81%; in series [2], 90.54%.
Turning to `COc1cccc(-c2cc(=O)c3cc(OC)ccc3o2)c1` [6,3'-DIMETHOXYFLAVONE], the figures for the residual activity in series [1] and in series [2] were 131.7% and 120.4%, respectively.
`Cl.O=c1n(CCCN2CCN(c3cccc(Cl)c3)CC2)nc2ccccn12` [TRAZODONE HYDROCHLORIDE]: the figures for the residual activity in series [1] and in series [2] were 98.06% and 111.6%, respectively.
`CN(C)C(=O)C(CCN1CCC(O)(c2ccc(Cl)cc2)CC1)(c1ccccc1)c1ccccc1.Cl` [LOPERAMIDE HYDROCHLORIDE]: the residual activity in series [1] turned out to be 51.98%; in series [2], 94.1%.
On to `CC1(C)CC[C@]2(C(=O)O)CC[C@]3(C)C(=CC[C@@H]4[C@@]5(C)CC[C@H](O)C(C)(C)[C@@H]5CC[C@]43C)[C@@H]2C1` [OLEANOLIC_ACID], for which the residual activity in series [1] is reported as 83.88%; in series [2] it was 73.61%.
Regarding `CN(C)CCCO[C@@H]1[C@H]2OC(C)(C)O[C@H]2O[C@@H]1[C@H](O)CO` [AMIPRILOSE], the values for the residual activity in series [1] and in series [2] were 91.07% and 95.1%, respectively.
For the compound `COc1cccc(/C=C/C(=O)O)c1C(C)C` [2-ISOPROPYL-3-METHOXYCINNAMIC ACID], the residual activity is 137.6% in series [1] and 87.92% in series [2].
`CC(=O)Oc1c(-c2ccccc2)oc2c(CC=C(C)C)c3c(c(OC(C)=O)c2c1=O)C=CC(C)(C)O3` [SERICETIN DIACETATE]: the values for the residual activity in series [1] and in series [2] were 106.8% and 81.94%, respectively.
With `CC(=O)O[C@@H]1CC[C@@]2(C)[C@@H](CC[C@@H]3[C@@H]2CC[C@]2(C)C(=O)CC[C@@H]32)C1` [ANDROSTERONE ACETATE], the residual activity in series [1] is 76.88%; in series [2], 100.8%.
The corresponding values for `CC(=O)N[C@@H]1[C@@H](O)[C@H](O)[C@@H](CO)O[C@H]1O` [N-ACETYLGLUCOSAMINE] are 48.98% and 82.99%.
Turning to `CO/N=C(\C(=O)N[C@@H]1C(=O)N2C(C(=O)[O-])=C(COC(N)=O)CS[C@H]12)c1ccco1.[Na+]` [CEFUROXIME SODIUM], the residual activity in series [1] was 64.47%; in series [2], 83.34%.
Turning to `C1N2CN3CN1CN(C2)C3` [METHENAMINE], the results for the residual activity in series [1] and in series [2] were 93.33% and 72.89%, respectively.
For `O=C([O-])c1cc2cc(Cc3cccnc3)ccc2o1.[Na+]` the same measures were 121% and 108.4%.
As to `CC(=O)N[C@@H](Cc1c[nH]c2ccccc12)C(N)=O` [ACETYLTRYPTOPHANAMIDE], the results for the residual activity in series [1] and in series [2] were 85.16% and 60.38%, respectively.
As to `CC(=O)O[C@H]1CC[C@@]23C(=O)O[C@]45CC[C@H](C6=CC(=O)OC6)[C@@]4(C)CC[C@H]2[C@H]5CC[C@]3(O)C1`, the residual activity in series [1] worked out at 59.99%; in series [2] it was 85.76%.
The corresponding values for `CC1(C)CC2C1CCC1(C)OC1CCC2(C)O` (configuration not stated) [2-HYDROXY-5 (6)EPOXY-TETRAHYDROCARYOPHYLLENE] are 70.41% and 86.53%.
Take `COc1ccc2c(c1)OCC(Cc1ccc(OC)c(OC(C)=O)c1)C2=O` (configuration not stated) [DEOXYSAPPANONE B 7,3'-DIMETHYL ETHER ACETATE]: the residual activity is 122.7% in series [1] and 148.3% in series [2].
In the case of `COc1ccc2c(c1OC)C(=O)O[C@@H]2[C@H]1c2c(cc3c(c2OC)OCO3)CCN1C.Cl` [NOSCAPINE HYDROCHLORIDE], the residual activity in series [1] came to 114.6%; in series [2], 93.17%.
As for `CCC(Cc1c(I)cc(I)c(N)c1I)C(=O)O` (configuration not stated) [IOPANOIC ACID], the residual activity in series [1] came out at 31.11%; in series [2], 59.57%.
On to `C/C=C/c1ccc2c(c1)OCO2` [ISOSAFROLE], for which the residual activity in series [1] came to 75.01%; in series [2], 79.83%.
With `Br.COc1c2c(cc3c1OCO3)CCN(C)C2` [HYDROCOTARNINE HYDROBROMIDE], the residual activity in series [1] turned out to be 99.81%; in series [2], 89.75%.
As for `CC(=O)N(O)CCCCCNC(=O)CCC(=O)N(O)CCCCCNC(=O)CCC(=O)N(O)CCCCCN.CS(=O)(=O)O` [DEFEROXAMINE MESYLATE], the residual activity is recorded as 116.4% in series [1] and 98.92% in series [2].
With `CC(C)Cn1c(=O)n(C)c(=O)c2[nH]cnc21` [ISOBUTYLMETHYLXANTHINE], the residual activity in series [1] was 102.2% and 126.3%; in series [2] it was 85.37% and 74.61%.
For the compound `O=C(O)CCCCCCCCCCCC[C@@H]1C=CCC1` [CHAULMOOGRIC ACID], the residual activity in series [1] amounted to 83.53%; in series [2], 82.39%.
On to `O=C(O)C1CC([C@@H]2CCCCN2)CN2CCCCC12` (some centres not stated) [APHYLLIC ACID], for which the residual activity in series [1] worked out at 83.2%; in series [2] it was 100.7%.
For `CC(C)c1c(O)ccc2c1CC[C@H]1[C@@](C)(C=O)CCC[C@]21C` [TOTARAL], the residual activity in series [1] turned out to be 80.52%; in series [2], 100.9%.
For `CCC(C)C(=O)c1c(O)c(C)c2oc3c(C)c(O)c(C(=O)C(C)CC)c(O)c3c2c1O` (configuration not stated) [RHODOMYRTOXIN B], the values for the residual activity in series [1] and in series [2] were 8.078% and 37.47%, respectively.
Consider `CCN(CC)CCOC(=O)C(Cc1cccc2ccccc12)CC1CCCO1.O=C(O)C(=O)O` (configuration not stated) [NAFRONYL OXALATE], for which the residual activity in series [1] came to 74.24%; in series [2], 116.5%.
With `Cc1coc2ccccc2c1=O` [METHYLCHROMONE], the residual activity in series [1] stood at 91.88%; in series [2] it was 92.21%.
Consider `C#C[C@]1(OC(C)=O)CC[C@H]2[C@@H]3CCC4=CC(=O)CC[C@@H]4[C@H]3CC[C@@]21C` [NORETHINDRONE ACETATE], for which the values for the residual activity in series [1] and in series [2] were 106.9% and 104.9%, respectively.
With `CCCCNC(=O)NS(=O)(=O)c1ccc(C)cc1` [TOLBUTAMIDE], the residual activity in series [1] is 125.3%; in series [2], 99.86%.
The corresponding values for `COc1ccc2c(c1)[C@@]1(C)CC[C@@H](O)C[C@@H]1CC2` [12-METHOXY-4,4-BISNOR-5alpha-8,11,13-PODOCARPATRIEN-3-OL] are 95.25% and 91.61%.
For `O=C(O)c1nn(Cc2ccc(Cl)cc2Cl)c2ccccc12` [LONIDAMINE] the same measures were 129% and 108%.
In the case of `COc1ccc([C@@H](C)C(=O)c2ccc(O)cc2O)cc1` [ANGOLENSIN (R)], the values for the residual activity in series [1] and in series [2] were 114.1% and 126.8%, respectively.
`COc1cc(-c2coc3cc(OC)c(OC)c(OC)c3c2=O)cc(OC)c1OC` [IRIGENIN TRIMETHYL ETHER]: the residual activity in series [1] is on record as 216.2%; in series [2], 91.27%.
For the compound `N[C@@H](Cc1ccc(O)c(O)c1)C(=O)O` [LEVODOPA], the figures for the residual activity in series [1] and in series [2] were 86.05% and 90.65%, respectively.
